≈ marks a conversion by molar mass, not a printed value.
Key:
[1] = tested on: enterovirus EV71 (BrCr strain); assay: Activity screening for anti-enterovirus EV71: inhibition of cytopathic effect in Vero cells; assay type: cell-based; conditions: for IC50: 100TCID50, Vero cells, CPE read when virus control reaches 4+, read-out: IC50 (half inhibitory concentration for enterovirus EV71); for SI (Selectivity Index = TC50/IC50): Vero cells
Experimental: Test item: Activity screening of the compounds for anti-enterovirus EV71
Test principle: Vero cells are used as viral host. The inhibition of the compound of the invention on the degree of cytopathic effect of Vero cells caused by enterovirus virus EV71 is determined.
1. Virus strain: enterovirus EV71 (BrCr, American Type Culture Collection, ATCC)
(§1) 2. Sample treatment: the compounds of the present invention are dissolved in DMSO or diluent to prepare stock solution which is stored at −20° C. The stock solution is formulated to suitable incipient concentration with culture solution immediately before use, and then 3-fold diluted with the culture solution, 8 degrees of dilution each.
3. Positive control drug: Pirodavir (LGM Pharma), which is a broad-spectrum anti-viral inhibitor.
(§2) 4. Test Method: Vero cells are seeded into a 96-well culture plate, at 5% CO2, and cultured at 37° C. for 16 hours. The Vero cells are added with different dilutions of drugs, and the degree of cytopathic effect (CPE) in each group is observed. The half toxic concentration (TC50) of each sample for Vero cells is calculated. Vero cells are added with 100TCID50 enterovirus EV71 respectively, and the virus solution is discarded after adsorption at 37° C. for 1 hour, and then drugs with various degrees of dilution are added respectively. Virus control and cell control are set and incubated at 37° C. The degree of cytopathic effect (CPE) in each group is observed when the degree of cytopathic effect (CPE) of virus control group reaches 4+. The half inhibitory concentration (IC50) of each sample for enterovirus EV71 are calculated. Selectivity Index (SI) is calculated according to the following equation: SI=TC50/IC50.

Vero cells = assay: Cytotoxicity of the compounds for Vero cells (CPE observation, TC50); assay type: cell-based; conditions: no virus
Experimental: as §1, §2

Row | SMILES | IC50 [1] | melting point | TC50 (half toxic concentration for Vero cells) (Vero cells) | SI (Selectivity Index = TC50/IC50) [1]
1 | COC(=O)c1csc(NC(=O)[C@H]2O[C@@H]2C(=O)N(Cc2ccccc2)c2ccc(C(=O)Nc3nc4ccccc4s3)cc2)n1 [Compound 41, (2S,3S)—N^2-(4-(benzo[d]thiazol-2-ylcarbamoyl)phenyl)-N^2-benzyl-N^3-(4-methoxycarbonylthiazol-2-yl)-2,3-epoxybutanediamide] | > 0.82 µg/mL | 223.5 to 224.3 °C | 1.43 µg/mL | –
2 | O=C(Nc1nc2ccccc2s1)c1ccc(N(Cc2ccc(F)cc2)C(=O)[C@H]2O[C@@H]2C(=O)Nc2cccc(Cl)c2Cl)cc1 [Compound 25, (2S,3S)—N^2-(4-(benzo[d]thiazol-2-ylcarbamoyl)phenyl)-N^3-(2,3-dichlorophenyl)-N^2-(4-fluorobenzyl)-2,3-epoxybutanediamide] | > 0.27 µg/mL | 210.2 to 211.1 °C | 0.82 µg/mL | –
3 | O=C(Nc1ccc(Cl)c(Cl)c1)[C@H]1O[C@@H]1C(=O)N(Cc1ccccc1)c1ccccc1 [Compound 3, (2S,3S)—N^2-benzyl-N^2-phenyl-N^3-(3,4-dichlorophenyl)-2,3-epoxybutanediamide] | 2.47 µg/mL (≈ 5.6 µM) | 174.5 to 175.7 °C | 5.14 µg/mL | 2.08
4 | O=C(Nc1nc2ccccc2s1)c1ccc(N(Cc2ccc(F)cc2)C(=O)[C@H]2O[C@@H]2C(=O)Nc2cccc(Br)c2)cc1 [Compound 18, (2S,3S)—N^2-(4-(benzo[d]thiazol-2-ylcarbamoyl)phenyl)-N^3-(3-bromophenyl)-N^2-(4-fluorobenzyl)-2,3-epoxybutanediamide] | > 0.82 µg/mL | 206.3 to 207.1 °C | 1.43 µg/mL | –
5 | Cc1c(Cl)cccc1NC(=O)[C@H]1O[C@@H]1C(=O)N(Cc1ccccc1)c1ccccc1 [Compound 13, (2S,3S)—N^2-benzyl-N^2-phenyl-N^3-(2-methyl-3-chlorophenyl)-2,3-epoxybutanediamide] | > 0.27 µg/mL | 119.4 to 120.2 °C | 1.19 µg/mL | –
6 | O=C(Nc1nc2ccccc2s1)c1ccc(N(Cc2ccc(F)cc2)C(=O)[C@H]2O[C@@H]2C(=O)Nc2ccccc2Br)cc1 [Compound 27, (2S,3S)—N^2-(4-(benzo[d]thiazol-2-ylcarbamoyl)phenyl)-N^3-(2-bromophenyl)-N^2-(4-fluorobenzyl)-2,3-epoxybutanediamide] | > 0.27 µg/mL | 179.2 to 180.1 °C | 0.82 µg/mL | –
7 | O=C(Nc1nc2ccccc2s1)c1ccc(N(Cc2ccc(F)cc2)C(=O)[C@H]2O[C@@H]2C(=O)O)cc1 [Compound 16, (2S,3S)-3-((4-(benzo[d]thiazol-2-ylcarbamoyl)phenyl)(4-fluorobenzyl)carbamoyl)oxirane-2-carboxylic acid] | > 2.47 µg/mL | 200.6 to 201.3 °C | 17.25 µg/mL | –
8 | O=C(Nc1ccccc1Br)[C@H]1O[C@@H]1C(=O)N(Cc1ccccc1)c1ccccc1 [Compound 15, (2S,3S)—N^2-benzyl-N^2-phenyl-N^3-(2-bromophenyl)-2,3-epoxybutanediamide] | 0.47 µg/mL (≈ 1.04 µM) | 113.2 to 114.3 °C | 1.43 µg/mL | 3.04
9 | COc1cccc(NC(=O)[C@H]2O[C@@H]2C(=O)N(Cc2ccc(F)cc2)c2ccc(C(=O)Nc3nc4ccccc4s3)cc2)c1 [Compound 21, (2S,3S)—N^2-(4-(benzo[d]thiazol-2-ylcarbamoyl)phenyl)-N^3-(3-methoxyphenyl)-N^2-(4-fluorobenzyl)-2,3-epoxybutanediamide] | > 0.27 µg/mL | 223.1 to 224.1 °C | 1.19 µg/mL | –
10 | O=C(Nc1nc2ccccc2s1)c1ccc(N(Cc2ccc(F)cc2)C(=O)[C@H]2O[C@@H]2C(=O)Nc2ccc([N+](=O)[O-])cc2)cc1 [Compound 24, (2S,3S)—N^2-(4-(benzo[d]thiazol-2-ylcarbamoyl)phenyl)-N^3-(4-nitrophenyl)-N^2-(4-fluorobenzyl)-2,3-epoxybutanediamide] | > 0.82 µg/mL | 203.5 to 204.2 °C | 1.43 µg/mL | –

Second part, led by results:

Row | IC50 [1] | melting point | SMILES | TC50 (half toxic concentration for Vero cells) (Vero cells) | SI (Selectivity Index = TC50/IC50) [1]
11 | > 0.27 µg/mL | 220.5 to 221.6 °C | CCOC(=O)c1csc(NC(=O)[C@H]2O[C@@H]2C(=O)N(Cc2ccc(F)cc2)c2ccc(C(=O)Nc3nc4ccccc4s3)cc2)n1 [Compound 33, (2S,3S)—N^2-(4-(benzo[d]thiazol-2-ylcarbamoyl)phenyl)-N^2-(4-fluorobenzyl)-N^3-(4-ethoxycarbonylthiazol-2-yl)-2,3-epoxybutanediamide] | 1.19 µg/mL | –
12 | > 22.2 µg/mL | 198.6 to 199.3 °C | O=C(Nc1nc2ccccc2s1)c1ccc(N(Cc2ccccc2)C(=O)[C@H]2O[C@@H]2C(=O)O)cc1 [Compound 38, (2S,3S)-3-((4-(benzo[d]thiazol-2-ylcarbamoyl)phenyl)(benzyl)carbamoyl)oxirane-2-carboxylic acid] | 115.47 µg/mL | –
13 | 4.28 µg/mL (≈ 7.03 µM) | 224.5 to 226 °C | COc1ccc(NC(=O)[C@H]2O[C@@H]2C(=O)N(Cc2ccccc2)c2ccc(C(=O)Nc3nc4ccccc4s3)cc2)cc1OC [Compound 39, (2S,3S)—N^2-(4-(benzo[d]thiazol-2-ylcarbamoyl)phenyl)-N^2-benzyl-N^3-(3,4-dimethoxyphenyl)-2,3-epoxybutanediamide] | 32.05 µg/mL | 7.49
14 | > 0.82 µg/mL | 219.8 to 220.2 °C | COC(=O)c1cnc(NC(=O)[C@H]2O[C@@H]2C(=O)N(Cc2ccc(F)cc2)c2ccc(C(=O)Nc3nc4ccccc4s3)cc2)s1 [Compound 36, (2S,3S)—N^2-(4-(benzo[d]thiazol-2-ylcarbamoyl)phenyl)-N^2-(4-fluorobenzyl)-N^3-(5-methoxycarbonylthiazol-2-yl)-2,3-epoxybutanediamide] | 3.56 µg/mL | –
15 | > 2.47 µg/mL | 200.1 to 201.2 °C | COc1ccc(NC(=O)[C@H]2O[C@@H]2C(=O)N(Cc2ccc(F)cc2)c2ccc(C(=O)Nc3nc4ccccc4s3)cc2)cc1 [Compound 20, (2S,3S)—N^2-(4-(benzo[d]thiazol-2-ylcarbamoyl)phenyl)-N^3-(4-methoxyphenyl)-N^2-(4-fluorobenzyl)-2,3-epoxybutanediamide] | 13.74 µg/mL | –
16 | 0.13 µg/mL (≈ 0.352 µM) | – | CCOC(=O)c1ccc(OCCC2CCN(c3ccc(C)nn3)CC2)cc1 [Pirodavir, reference compound] | 4.81 µg/mL | 4.81
17 | > 0.82 µg/mL | – | COC(=O)c1cnc(NC(=O)[C@H]2O[C@@H]2C(=O)N(Cc2ccccc2)c2ccc(C(=O)Nc3nc4ccccc4s3)cc2)s1 [Compound 42, (2S,3S)—N^2-(4-(benzo[d]thiazol-2-ylcarbamoyl)phenyl)-N^2-benzyl-N^3-(5-methoxycarbonylthiazol-2-yl)-2,3-epoxybutanediamide] | 4.28 µg/mL | –

— US9630957B2, “2,3-butanediamide epoxide compound and preparation method and use thereof” (Institute of Pharmacology and Toxicology Academy of …, priority 2014, dated 2017)
